Tests used:
Photostability = assay type: physicochemical; settings: Table 13B
[1] = Critical wavelength (λcrit), approximate in-house measurement; assay type: physicochemical
Source text: As the precise test for critical wavelength was unable to be replicated exactly by the inventors due to the need for specialist equipment and a specific calibration of the spectrophotometer, these values are only approximate to a degree. […] This represents a highly useful result and so, compounds based around this benzoyl substitution pattern shown, are especially preferred.

[2] = UV absorption properties (λmax, molar extinction coefficient ε, efficiency E 1%, 1 cm); assay type: physicochemical; settings: for shoulder in the λmax column: Tables 5, 10, 13B
[3] = Table 13B, miscellaneous compounds
[4] = Table 13B, values in order of the λmax values
[5] = Table 13B, values in order of the λmax values, in M-1 cm-1
[6] = values in order of the λmax values
[7] = Table 9, C3-trifluoroacetylated N-aryl enamines
[8] = Table 10, bis and mono enamine compounds
[9] = Table 11, compounds from mixed anhydrides
[10] = Table 12, 2-substituted compounds

SMILES	Photostability (%) (Photostability)	λcrit ([1]; Table 13B) [nm]	λmax [2, 3] [nm]	E (1%, 1 cm) [2, 4]	ε [2, 5]	also measured
CN1C=C(C(=O)c2ccc(N(C)CCCCCCN(C)c3ccc(C(=O)C4=CN(C(C)(C)C)CCC4(C)C)cc3)cc2)C(C)(C)CC1	22	364				
CC1(C)CCN(C(C)(C)C)C=C1C(=O)/C=C/c1cccc(/C=C/C(=O)C2=CN(C(C)(C)C)CCC2(C)C)c1	95	386	360	395	20388	
CCCCC(CC)CN(c1ccc(C(=O)C2=CN(C(C)(C)C)CCC2(C)C)cc1)c1ccc(C(=O)C2=CN(C(C)(C)C)CCC2(C)C)cc1 (centres unmarked)		369	316	624	41598	Photostability (%) + Octo (Photostability; with octocrylene (+ Octo)): 90%; shoulder in the λmax column [2]: ~340 nm
CCCCC(CC)COC(=O)c1cc(/C=C/C(=O)C2=CN(C(C)(C)C)CCC2(C)C)ccc1/C=C/C(=O)C1=CN(C(C)(C)C)CCC1(C)C (centres unmarked)	2	388	378	460	30963	
CC(C)CN1C=C(C(=O)C(C)(C)C)C(C)(C)CC1	60	327	309	1137	28554	
CCCCC(CC)COC(=O)CCC(=O)C1=CN(c2ccc(N3C=C(C(=O)CCC(=O)OCC(CC)CCCC)C(C)(C)CC3)cc2)CCC1(C)C (centres unmarked)	52	379	359	628	45301	
Cc1ccc(NC(=O)C2=CN(C(C)(C)CC(C)(C)C)CCC2(C)C)cc1NC(=O)C1=CN(C(C)(C)CC(C)(C)C)CCC1(C)C	55	328	311	990	61479	
CCCCC(CC)CN(c1ccc(C(=O)C2=CN(C(C)(C)C)CCC2(C)C)cc1)c1ccc(C(=O)C2=CN(C(C)(C)C)CCC2(C)C)cc1.Cl (centres unmarked)	39	370	316	653	45910	
CC1(C)CCN(C(C)(C)C)C=C1C(=O)c1c(F)c(F)c(F)c(F)c1F	100	333	314	951	34340	
CCOC(=O)C(=O)C1=CN(C(C)(C)C)CCC1(C)C	50	344	311	998	26668	
CN(C)c1ccc(C(=O)C2=CN(C(C)(C)C)CCC2(C)C)cc1 [Compound 157, (1-(tert-butyl)-4,4-dimethyl-1,4,5,6-tetrahydropyridine-3-yl)(4-(dimethylamino)phenyl)methanone]						UV λmax [2]: 333 nm; ε (molar extinction coefficient) [2, 6]: 24966 M⁻¹ cm⁻¹; melting point: 162 to 163 °C
CC(C)(C)Oc1ccc(C(=O)C2=CN(C(C)(C)C)CCC2(C)C)cc1 [Compound 158, (4-(tert-butoxy)phenyl)(1-(tert-butyl)-4,4-dimethyl-1,4,5,6-tetrahydropyridin-3-yl)methanone]						UV λmax [2]: 317 nm; ε (molar extinction coefficient) [2, 6]: 32556 M⁻¹ cm⁻¹; melting point: 98 to 101 °C
CC1(C)CCN(C(C)(C)C)C=C1C(=O)c1ccc(C(=O)C2=CN(C(C)(C)C)CCC2(C)C)cc1 [Compound 159, 1,4-phenylenebis((1-(tert-butyl)-4,4-dimethyl-1,4,5,6-tetrahydropyridin-3-yl)methanone)]						UV λmax [2]: 317 nm; ε (molar extinction coefficient) [2, 6]: 33982 M⁻¹ cm⁻¹; melting point: 243 °C (dec.)
CC1(C)CCN(C(C)(C)C)C=C1C(=O)c1ccc(C(=O)O)cc1 [Compound 160, 4-(1-(tert-butyl)-4,4-dimethyl-1,4,5,6-tetrahydropyridine-3-carbonyl)benzoic acid]						UV λmax [2]: 317 nm; ε (molar extinction coefficient) [2, 6]: 17300 M⁻¹ cm⁻¹; melting point: 80 to 83 °C
CC1(C)CCN(c2ccc(C(C)(C)C)cc2)C=C1C(OC(=O)C1c2ccccc2-c2ccccc21)=C1c2ccccc2-c2ccccc21 [Compound 206, (1-(4-(tert-butyl)phenyl)-4,4-dimethyl-1,4,5,6-tetrahydropyridin-3-yl)(9H-fluoren-9-ylidene)methyl 9H-fluorene-9-carboxylate]						UV λmax [2]: 407 nm; melting point: 145 °C
CN(C)c1ccc(N2C=C(C(=O)C(F)(F)F)C(C)(C)CC2)cc1 [drawing 141]						E (1%, 1 cm) ([2]; Table 9): 1004; λmax [2, 7]: 354 nm; ε ([2]; Table 9, in M-1 cm-1): 32744; λcrit ([1]; Table 9): 385 nm
Cc1ccc(N2C=C(C(=O)C(F)(F)F)C(C)(C)CC2)cc1 [drawing 142]						E (1%, 1 cm) ([2]; Table 9): 1465; λmax [2, 7]: 337 nm; ε ([2]; Table 9, in M-1 cm-1): 43513; λcrit ([1]; Table 9): 361 nm
CC1(C)CCN(c2cccc3ccccc23)C=C1C(=O)C(F)(F)F [drawing 143]						E (1%, 1 cm) ([2]; Table 9): 985; λmax [2, 7]: 325 nm; ε ([2]; Table 9, in M-1 cm-1): 32790; λcrit ([1]; Table 9): 348 nm
Cc1ccc(N2C=CC(C)(C)C(C(=O)C(F)(F)F)=C2)cc1 [drawing 151]						E (1%, 1 cm) ([2]; Table 10): 505; λmax [2, 8]: 388 nm; ε ([2]; Table 10, in M-1 cm-1): 14911; λcrit ([1]; Table 10): 393 nm
Cc1cc(N2C=CC(C)(C)C=C2)n(C)n1 [drawing 152]						E (1%, 1 cm) ([2]; Table 10): 560; λmax [2, 8]: 253 nm; ε ([2]; Table 10, in M-1 cm-1): 11371; λcrit ([1]; Table 10): 350 nm
Cc1nn(C)c(N2C=CC(C)(C)C=C2)c1C(=O)C(F)(F)F [drawing 153]						E (1%, 1 cm) ([2]; Table 10): 335; λmax [2, 8]: 253 nm; ε ([2]; Table 10, in M-1 cm-1): 10016; shoulder in the λmax column [2]: 315 nm; λcrit ([1]; Table 10): 363 nm
CC1(C)CCN(c2ccc(C(C)(C)C)cc2)C=C1C(=O)C(c1ccccc1)c1ccccc1 [drawing 157]						E (1%, 1 cm) ([2]; Table 11): 407; λmax [2, 9]: 337 nm; ε ([2]; Table 11, in M-1 cm-1): 17793; λcrit ([1]; Table 11): 356 nm
CC1(C)CCN(c2ccc(C(C)(C)C)cc2)C=C1C(=O)C1c2ccccc2-c2ccccc21 [drawing 158]						E (1%, 1 cm) ([2]; Table 11): 707; λmax [2, 9]: 339 nm; ε ([2]; Table 11, in M-1 cm-1): 30745; λcrit ([1]; Table 11): 358 nm
CC1(C)CCN(c2ccc(C(C)(C)C)cc2)C=C1C(OC(=O)C1c2ccccc2-c2ccccc21)=C1c2ccccc2-c2ccccc21 [drawing 159]						E (1%, 1 cm) ([2]; Table 11): 105; λmax [2, 9]: 407 nm; ε ([2]; Table 11, in M-1 cm-1): 6635; λcrit ([1]; Table 11): 387 nm
CCC(=O)C1=C(c2ccccc2)N(CC(C)C)CCC1(C)C [drawing 163]						E (1%, 1 cm) ([2]; Table 12): 268; ε ([2]; Table 12): 8000 M⁻¹ cm⁻¹; λmax [2, 10]: 338 nm; λcrit ([1]; Table 12): 365 nm
CCC(=O)O/C(=C\C1=CC(C)(C)CCN1CC(C)C)CC [drawing 165]						E (1%, 1 cm) ([2]; Table 12): 683; ε ([2]; Table 12): 20000 M⁻¹ cm⁻¹; λmax [2, 10]: 323 nm; λcrit ([1]; Table 12): 344 nm
CCC(=O)C1=CN(CC(C)C)C=CC1(C)C [drawing 170]						E (1%, 1 cm) ([2]; Table 13A): 362; ε ([2]; Table 13A): 8800 M⁻¹ cm⁻¹; λmax ([2]; Table 13A, miscellaneous compounds): 366 nm; λcrit ([1]; Table 13A): 386 nm
CC(C)=CCCC(C)CC(=O)C1=CN(c2ccc(N3C=C(C(=O)CC(C)CCC=C(C)C)C(C)(C)CC3)cc2)CCC1(C)C (centres unmarked) [drawing 212]		379	359	690	41400	
CC(C)=CCCC(C)CC(=O)C1=CN(c2ccc(N3C=C(C(=O)CC(C)CCC=C(C)C)C(C)(C)CC3)cc2)CCC1(C)C (centres unmarked) [drawing 213]		378	358	550	33000	

The next lines start with results.

Photostability (%) (Photostability)	λcrit ([1]; Table 13B) [nm]	λmax [2, 3] [nm]	E (1%, 1 cm) [2, 4]	ε [2, 5]	SMILES	also measured
75	346	316	655	20919	CC1(C)CCN(C(C)(C)C)C=C1C(=O)c1ccc(F)cc1	
77	385	360	564	27646	CC1(C)CCN(C(C)(C)C)C=C1C(=O)/C=C/c1ccc(C(=O)C2=CN(C(C)(C)C)CCC2(C)C)cc1	
54	379	358	1090	59296	CC1(C)CCN(c2ccc(N3C=C(C(=O)CCC(F)(F)F)C(C)(C)CC3)cc2)C=C1C(=O)CCC(F)(F)F	
76	342	315	939	25447	CC1(C)CCN(C(C)(C)C)C=C1C(=O)c1ccccc1	
85	331	312	1162	35700	CC1(C)CCN(C(C)(C)C)C=C1C(=O)c1c(F)cccc1F	
76	349	315	782	26531	CC1(C)CCN(C(C)(C)C)C=C1C(=O)c1ccc(C(F)(F)F)cc1	
68	362	332	1210	34743	CCOC(=O)C(=O)C1=CN(c2ccccc2)CCC1(C)C	
22	360	317	635	17272	CC1(C)CCN(C(C)(C)C)C=C1C(=O)c1ccccn1	
33	326	311	1084	33953	Cc1cc(C)c(C(=O)C2=CN(C(C)(C)C)CCC2(C)C)c(C)c1	
